# Measured values from patent publication US12534454B2, “Crystal forms of 5-fluoro-1-(4-fluoro-3-(4-(pyrimidin-2-yl)piperazine-1-carbonyl)benzyl)quinazoline-2,4(1H,3H)-dione and preparation thereof” (IMPACT THERAPEUTICS (SHANGHAI), INC, priority 2020, dated 2026).
# “Also recorded” adds a separate entry of the source.
# How the values were obtained:
# Type in all cases: physicochemical
# [1] = Relative humidity X-ray powder diffraction (RH-XRPD) of Crystal Form VIII
# Protocol: Based on the above data, Crystal Form VIII was most likely to be a hydrate. […] Therefore, Crystal Form VIII was further characterized by RH-XRPD to confirm the hydrate crystal Form and to have the knowledge of the crystal Form transformation with the different RH.
# The parameters of XRPD used in the test were as follows: • Tube: Cu/K-Alpha (λ=1.54179Å); • Generator: Voltage: 40 KV; Current: 40 mA; • Scan Scope: 3-40 deg; • Scan Speed: 10 deg/min.
# About 100 mg of compound was evenly distributed to form a layer in a sample holder and transferred to a RH control component in which the relative humidity was controlled and adjusted by the ratio of dry/wet N2 blown.
# [2] = Dynamic Vapor Sorption (DVS) hygroscopicity; conditions: for hygroscopicity classification: DVS; for hygroscopicity classification / mass increase (DVS): 25° C.; for change of crystal form after the DVS testing: after DVS cycle 0%-90%-0% RH; for mass increase (DVS): relative humidity from 0% to 80%
# Protocol: About 10 mg of sample was transferred to a DVS sample pan and the weight change as the humidity of the environment at 25° C. changes was recorded. The parameters of […] were set as follows: • Equilibrium dm/dt: 0.01%/min: (minimum: 10 min; maximum: 180 min); • Drying: 0% RH, 120 min; • RH (%) gradients: 10%; • RH (%) cycle: 0%-90%-0%. • Definition on Hygroscopicity
# [3] = Long-term stability study of crystal form VIII; conditions: for Water content / XRPD (crystal form): 25 ± 2° C./60 ± 5% RH
# Protocol: A long-term stability study has been carried out under condition of 25° C./60% RH for the crystal form VIII.
# [4] = Thermodynamic stability / solvent competition among crystal forms; conditions: for thermodynamic status among anhydrate crystal forms: temperature below 50° C.
# Protocol: After filtration by a needle filter, the filtrate was transferred to 1.5 mL vial. To the vial was added 5 mg of Crystal Form V and VI and the resulting suspensions were shaken for a while at the target temperatures. After centrifugation, the obtained solid was dried at 40° C. by vacuum overnight and then examined by XRPD to identify changes among different crystal forms.
# With different solvents at corresponding temperatures shown in the table below, Crystal Form VIII was dissolved until saturated respectively. After filtration by a needle filter, the filtrate was transferred to 1.5 mL vial. To the vial was added 5 mg of Crystal Form III, V and IX and the resulting suspensions were shaken for a while at the target temperatures. After centrifugation, the obtained solid was dried at 40° C. by vacuum overnight and then examined by XRPD to identify changes among different crystal forms.
# [5] = Physical stability study of crystal forms (XRPD); conditions: 25° C./60% RH and 40° C./75% RH (long-term and accelerated), 2 weeks
# Protocol: About 10 mg of Crystal Forms II, V and VI were added into 1.5 mL vial respectively which were then placed at the conditions of 25° C./60% RH and 40° C./75% RH. The solid in the vials was examined by XRPD at the corresponding time points.
# [6] = Water activity study (competition of crystal forms)
# Protocol: Crystal Form VIII was dissolved in solvents with different water activity shown in the table below and then filtered by a needle filter to prepare a saturated solution. After the filtrate was transferred into a 1.5 mL vial, 2 mg of Crystal Form I, II, VIII, X and XI were added respectively and the resulting suspensions were shaken for a while at the target temperatures. After centrifugation, the solid obtained was air dried at ambient temperature (DMSO system was washed by MTBE) and then examined by XRPD to identify changes among different crystal forms.
compound,measurement,setting,value
"O=C(c1cc(Cn2c(=O)[nH]c(=O)c3c(F)cccc32)ccc1F)N1CCN(c2ncccn2)CC1 [Crystal Form “VIII”, 5-fluoro-1-(4-fluoro-3-(4-(pyrimidin-2-yl)piperazine-1-carbonyl)benzyl)quinazoline-2,4(1H,3H)-dione]",crystal form after moisture absorption,"[1]; 5° C./75% RH, ambient temperature/75% RH, or 40° C./75% RH",return to Crystal Form VIII
"O.O.O=C(c1cc(Cn2c(=O)[nH]c(=O)c3c(F)cccc32)ccc1F)N1CCN(c2ncccn2)CC1 [Crystal Form VIII, 5-fluoro-1-(4-fluoro-3-(4-(pyrimidin-2-yl)piperazine-1-carbonyl)benzyl)quinazoline-2,4(1H,3H)-dione dihydrate]",hygroscopicity (in words),[2],high hygroscopicity
same,change of water content in long-term stability,"[3]; 25° C./60% RH, up to 24 months",no significant change
same,crystal form change in long-term stability,"[3]; 25° C./60% RH, up to 24 months",no crystal form change
same,long-term stability (in words),"[3]; 25° C./60% RH, up to 24 months",stable
same,Water content,[3]; 9 months,7.8%
same,Water content,[3]; 12 months,7.7%
same,XRPD (crystal form),[3]; 12 months,Form VIII
same,Water content,[3]; 18 months,7.6%
same,Water content,[3]; 24 months,7.4%
same,XRPD (crystal form),[3]; 24 months,Form VIII
same,Water content,[3]; Initial,7.7%
same,XRPD (crystal form),[3]; Initial,Form VIII
same,"Crystal Form (RH-XRPD), absorption process","[1]; 0% RH, equilibrium 2 hour",XII
same,"Crystal Form (RH-XRPD), desorption process","[1]; 0% RH, equilibrium 2 hour",XII
same,"Crystal Form (RH-XRPD), absorption process","[1]; 10% RH, equilibrium 2 hour",XII
same,"Crystal Form (RH-XRPD), desorption process","[1]; 10% RH, equilibrium 2 hour",XII
same,"Crystal Form (RH-XRPD), absorption process","[1]; 20% RH, equilibrium 2 hour",XII
same,"Crystal Form (RH-XRPD), desorption process","[1]; 20% RH, equilibrium 2 hour",XII
same,"Crystal Form (RH-XRPD), absorption process","[1]; 30% RH, equilibrium 2 hour",“VIII”
same,"Crystal Form (RH-XRPD), desorption process","[1]; 30% RH, equilibrium 2 hour",VIII
same,"Crystal Form (RH-XRPD), absorption process","[1]; 40% RH, equilibrium 2 hour",VIII
same,"Crystal Form (RH-XRPD), desorption process","[1]; 40% RH, equilibrium 2 hour",VIII
same,"Crystal Form (RH-XRPD), absorption process","[1]; 50% RH, equilibrium 2 hour",VIII
same,"Crystal Form (RH-XRPD), desorption process","[1]; 50% RH, equilibrium 2 hour",VIII
same,"Crystal Form (RH-XRPD), absorption process","[1]; 60% RH, equilibrium 0.5 hour",VIII
same,"Crystal Form (RH-XRPD), desorption process","[1]; 60% RH, equilibrium 0.5 hour",VIII
same,"Crystal Form (RH-XRPD), absorption process","[1]; 70% RH, equilibrium 0.5 hour",VIII
same,"Crystal Form (RH-XRPD), desorption process","[1]; 70% RH, equilibrium 0.5 hour",VIII
same,"Crystal Form (RH-XRPD), absorption process","[1]; 80% RH, equilibrium 0.5 hour",VIII
same,"Crystal Form (RH-XRPD), desorption process","[1]; 80% RH, equilibrium 0.5 hour",VIII
same,"Crystal Form (RH-XRPD), absorption process","[1]; 90% RH, equilibrium 0.5 hour",VIII
same,"Crystal Form (RH-XRPD), desorption process","[1]; 90% RH, equilibrium 0.5 hour",VIII
same,relative humidity at which the crystal form is stable,"[1]; RH-XRPD and DVS, below it water is lost and the crystal form changes",no less than 40 % RH
"O=C(c1cc(Cn2c(=O)[nH]c(=O)c3c(F)cccc32)ccc1F)N1CCN(c2ncccn2)CC1 [Crystal Form IX, 5-fluoro-1-(4-fluoro-3-(4-(pyrimidin-2-yl)piperazine-1-carbonyl)benzyl)quinazoline-2,4(1H,3H)-dione]",thermodynamic status among anhydrate crystal forms,[4]; anhydrous solvents,metastable
"O=C(c1cc(Cn2c(=O)[nH]c(=O)c3c(F)cccc32)ccc1F)N1CCN(c2ncccn2)CC1 [Crystal Form VI, 5-fluoro-1-(4-fluoro-3-(4-(pyrimidin-2-yl)piperazine-1-carbonyl)benzyl)quinazoline-2,4(1H,3H)-dione]",hygroscopicity classification,[2],slight hygroscopic
same,change of crystal form after the DVS testing,[2],no significant change
same,mass increase (DVS),[2],about 0.5%
same,crystal form change within two weeks,[5],not changed
same,thermodynamic status among anhydrate crystal forms,[4]; anhydrous solvents,metastable
same,crystal form change in the hydrous solvents,[4],changed to Crystal Form II
"O=C(c1cc(Cn2c(=O)[nH]c(=O)c3c(F)cccc32)ccc1F)N1CCN(c2ncccn2)CC1 [Crystal Form V, 5-fluoro-1-(4-fluoro-3-(4-(pyrimidin-2-yl)piperazine-1-carbonyl)benzyl)quinazoline-2,4(1H,3H)-dione]",hygroscopicity classification,[2],slight hygroscopic
same,change of crystal form after the DVS testing,[2],no significant change
same,mass increase (DVS),[2],about 0.8%
same,crystal form change within two weeks,[5],no crystal form change; also recorded: not changed
same,relative stability in the anhydrous solvents,"[4]; anhydrous solvents, 25° C., 50° C. and 80° C.",more stable than Crystal Form VI
same,thermodynamic status among anhydrate crystal forms,[4]; anhydrous solvents,dominant
same,crystal form change in the hydrous solvents,[4],changed to Crystal Form II
same,crystal form change in a high water activity,[6]; Aw>0.3,changed to Crystal Form II
"O=C(c1cc(Cn2c(=O)[nH]c(=O)c3c(F)cccc32)ccc1F)N1CCN(c2ncccn2)CC1 [Crystal Form II, 5-fluoro-1-(4-fluoro-3-(4-(pyrimidin-2-yl)piperazine-1-carbonyl)benzyl)quinazoline-2,4(1H,3H)-dione]",hygroscopicity classification,[2],hygroscopic
same,crystal form change within two weeks,[5],no crystal form change; also recorded: not changed
same,crystal form change in a low water activity,[6]; Aw<0.3,changed to Crystal Form V
"O=C(c1cc(Cn2c(=O)[nH]c(=O)c3c(F)cccc32)ccc1F)N1CCN(c2ncccn2)CC1 [Crystal Form III, 5-fluoro-1-(4-fluoro-3-(4-(pyrimidin-2-yl)piperazine-1-carbonyl)benzyl)quinazoline-2,4(1H,3H)-dione]",thermodynamic status among anhydrate crystal forms,[4]; anhydrous solvents,metastable
